Source: ChEMBL document CHEMBL5356998, “Diaporaustalides A-L, Austalide Meroterpenoids from a Plant Endophytic Diaporthe sp” (J Nat Prod, 2024)

Columns and labels:
[1] = test system: Splenocyte; experiment: Immunosuppressive activity in mouse splenocyte assessed as reduction in ConA-induced mouse T-cell proliferation; format: functional, cell-based
[2] = test system: Splenocyte; experiment: Immunosuppressive activity in mouse splenocyte assessed as reduction in LPS-induced mouse B-cell proliferation; format: functional, cell-based
[3] = Selectivity index, ratio of CC50 for cytotoxicity against mouse splenocyte to IC50 for immunosuppressive activity in mouse splenocyte assessed as reduction in LPS-induced mouse B-cell proliferation; settings: mouse splenocytes, read-out: Ratio CC50/IC50
[4] = Cytotoxicity against mouse splenocyte by MTT assay; format: toxicity, cell-based; settings: mouse splenocytes
[5] = Selectivity index, ratio of CC50 for cytotoxicity against mouse splenocyte to IC50 for immunosuppressive activity in mouse splenocyte assessed as reduction in ConA-induced mouse T-cell proliferation; settings: mouse splenocytes, read-out: Ratio CC50/IC50
[6] = test system: HeLa; experiment: Cytotoxicity against human HeLa cells by MTT assay; format: functional, cell-based
[7] = test system: B-cell; experiment: Downregulation od IL-6 expression in LPS induced B cell (unknown origin) incubated for 48 hrs by ELISA method; format: functional, cell-based; settings: dose 1-25 µM
[8] = biological target: Alpha-glucosidase (Saccharomyces cerevisiae S288c, UniProt P53341+P38158+P07265); experiment: Inhibition of Saccharomyces cerevisiae alpha glucosidase using p-nitrophenyl glucopyranoside as substrate preincubated for 10 mins followed by substrate addition and measured after 20 mins by microplate reader analysis; format: protein assay

Structure (SMILES) | IC50 [1] [µM] | IC50 [2] [µM] | selectivity ratio [3] | CC50 [4] [µM] | selectivity ratio [5] | IC50 [6] [µM] | Activity [7] | IC50 [8] [µM]
COc1c2c(c(C=O)c3c1C(=O)OC3)O[C@]1(C)CC[C@@]3(O)C(C)(C)CC[C@@H](O)[C@]3(C)[C@H]1C2 | > 50 | 31 | > 1.6 | > 50 |  |  |  | 
COc1c2c(c(C=O)c3c1C(=O)OC3)O[C@]1(C)CC[C@H]3C(C)(C)[C@@H](O)CC[C@]3(C)[C@H]1C2 | 35 | > 50 |  | > 50 | > 1.4 | 9.6 |  | 
COc1c2c(c(C=O)c3c1C(=O)OC3)O[C@]1(C)CC[C@@]3(O)C(C)(C)[C@@H](O)CC[C@]3(C)[C@H]1C2 | 28 | > 50 |  | > 50 | > 1.7 |  |  | 
COc1c2c(c(C=O)c3c1C(=O)OC3)O[C@]1(C)CC[C@@]3(O)[C@@](C)(C=O)CCC[C@]3(C)[C@H]1C2 | 37 | 39 | 1.1 | 43 | 1.2 |  |  | 
COc1c2c(c(C=O)c3c1C(=O)OC3)O[C@]1(C)CC[C@@]3(O)[C@@](C)(CO)CCC[C@]3(C)[C@H]1C2 | 25 | > 50 |  | > 50 | > 2 |  |  | 
COc1c2c(c(C=O)c3c1C(=O)OC3)O[C@]1(C)CC[C@H]3C(C)(C)[C@H](O)CC[C@]3(C)[C@H]1C2 | 11 | 6.7 | 3.6 | 24 | 2.2 |  | Dose-Dependent Effect | 
COc1c2c(c(C=O)c3c1C(=O)OC3)O[C@]1(C)CC[C@@]3(O)C(C)(C)[C@H](O)CC[C@]3(C)[C@H]1C2 | > 50 | > 50 |  | > 50 |  |  |  | 
COc1c2c(c(C=O)c3c1C(=O)OC3)O[C@]1(C)CC[C@@]3(O)[C@@](C)(C(=O)O)CCC[C@]3(C)[C@H]1C2 | 35 | > 50 |  | > 50 | > 1.4 |  |  | 
COc1c2c(c(C=O)c3c1C(=O)OC3)O[C@]1(C)CC[C@@]3(O)[C@@](C)(COC(C)=O)CCC[C@]3(C)[C@H]1C2 | 28 | 17 | > 2.3 | > 40 | > 1.4 |  |  | 166
COc1c2c(c(C=O)c3c1C(=O)OC3)O[C@]1(C)CC[C@@]3(O)C(C)(C)CCC[C@]3(C)[C@H]1C2 | 42 | 3.8 | > 13 | > 50 | 1.1 |  | Dose-Dependent Effect | 61
COc1c2c(c(C=O)c3c1C(=O)OC3)O[C@]1(C)[C@H](O)C[C@@]3(O)C(C)(C)CCC[C@]3(C)[C@H]1C2 | 22 | 8.5 | 2.7 | 23 | > 1 |  |  | 
COc1c(C)c2c(c(O)c1C/C=C(\C)CCC(=O)OCCN1CCOCC1)C(=O)OC2 [MYCOPHENOLATE MOFETIL] |  | 1 |  |  |  |  |  | 
COc1c2c(c(C(OC)OC)c3c1C(=O)OC3)O[C@]1(C)CC[C@@]3(O)C(C)(C)CCC[C@]3(C)[C@H]1C2 | > 50 | 44 |  | > 50 |  |  |  | 92
